pIC50: −log10 of the molar value. Like-named read-outs stand apart in the source and are kept apart here. Blank lines part the entries; values can stand above or below the molecule they belong to.
Experiments:
[1] = target: T1, baculovirus-expressed ALK (Homo sapiens, UniProt Q9UM73); assay: ALK Kinase Assay (ELISA-type, time-resolved fluorescence); type: biochemical
T1 construct: host or cells: baculovirus expression system
How it was run: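 Substrate coating: phospholipase C-γ, 10 μg/mL in TBS. Kinase step: 30 ng/ml ALK, 15 min, 37° C. Detection and analysis: Eu-N1 PT66 antibody, with IC50 fitted as a sigmoidal variable-slope dose-response curve.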

[2] = target: T2, c-Met (cytoplasmic domain) (Homo sapiens, UniProt P08581); assay: c-Met Kinase Assay (same methods as for ALK, with modifications); type: biochemical
T2 construct: 10 ng/mL c-Met (cytoplasmic domain, Invitrogen Corporation #PV3143); purchased Invitrogen Corporation PV3143
T2 sequence (P08581 956-1390 limits assumed): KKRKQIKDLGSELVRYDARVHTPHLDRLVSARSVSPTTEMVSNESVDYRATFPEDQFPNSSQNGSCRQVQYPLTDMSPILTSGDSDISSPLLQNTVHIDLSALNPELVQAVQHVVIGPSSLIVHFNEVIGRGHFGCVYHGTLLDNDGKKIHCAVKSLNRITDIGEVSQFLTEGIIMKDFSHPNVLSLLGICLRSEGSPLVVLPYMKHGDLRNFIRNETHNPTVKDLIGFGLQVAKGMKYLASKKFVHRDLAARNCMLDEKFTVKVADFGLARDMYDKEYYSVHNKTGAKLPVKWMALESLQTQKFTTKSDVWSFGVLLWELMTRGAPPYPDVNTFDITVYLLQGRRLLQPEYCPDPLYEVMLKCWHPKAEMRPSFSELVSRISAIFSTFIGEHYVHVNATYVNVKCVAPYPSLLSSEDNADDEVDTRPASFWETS
How it was run: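 This plate-based kinase format uses immobilized phospholipase C-γ as substrate, phosphorylated by c-Met cytoplasmic domain (10 ng/mL) at 37° C for 15 minutes.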

[3] = 1 μM ATP (Km level), 30 ng/ml ALK, 37° C., 15 minutes, read-out: ALK Activity (ALK kinase inhibition, IC50 class)
[4] = 1 μM ATP (Km level), 10 ng/mL c-Met, read-out: cMet Activity (c-Met kinase inhibition, IC50 class)
[5] = ALK kinase inhibition, 1 μM ATP (Km level), read-out: ALK Activity
[6] = c-Met kinase inhibition, 1 μM ATP (Km level), read-out: cMet Activity
[7] = 1 μM ATP (Km level), read-out: ALK Activity (ALK Kinase Inhibition, IC50)
[8] = 1 μM ATP (Km level), read-out: cMet Activity (c-Met Kinase Inhibition, IC50)
[9] = ALK kinase inhibition, 1 μM ATP, read-out: ALK Activity
[10] = c-Met kinase inhibition, 1 μM ATP, read-out: cMet Activity

T1 sequence (Q9UM73 19-1620): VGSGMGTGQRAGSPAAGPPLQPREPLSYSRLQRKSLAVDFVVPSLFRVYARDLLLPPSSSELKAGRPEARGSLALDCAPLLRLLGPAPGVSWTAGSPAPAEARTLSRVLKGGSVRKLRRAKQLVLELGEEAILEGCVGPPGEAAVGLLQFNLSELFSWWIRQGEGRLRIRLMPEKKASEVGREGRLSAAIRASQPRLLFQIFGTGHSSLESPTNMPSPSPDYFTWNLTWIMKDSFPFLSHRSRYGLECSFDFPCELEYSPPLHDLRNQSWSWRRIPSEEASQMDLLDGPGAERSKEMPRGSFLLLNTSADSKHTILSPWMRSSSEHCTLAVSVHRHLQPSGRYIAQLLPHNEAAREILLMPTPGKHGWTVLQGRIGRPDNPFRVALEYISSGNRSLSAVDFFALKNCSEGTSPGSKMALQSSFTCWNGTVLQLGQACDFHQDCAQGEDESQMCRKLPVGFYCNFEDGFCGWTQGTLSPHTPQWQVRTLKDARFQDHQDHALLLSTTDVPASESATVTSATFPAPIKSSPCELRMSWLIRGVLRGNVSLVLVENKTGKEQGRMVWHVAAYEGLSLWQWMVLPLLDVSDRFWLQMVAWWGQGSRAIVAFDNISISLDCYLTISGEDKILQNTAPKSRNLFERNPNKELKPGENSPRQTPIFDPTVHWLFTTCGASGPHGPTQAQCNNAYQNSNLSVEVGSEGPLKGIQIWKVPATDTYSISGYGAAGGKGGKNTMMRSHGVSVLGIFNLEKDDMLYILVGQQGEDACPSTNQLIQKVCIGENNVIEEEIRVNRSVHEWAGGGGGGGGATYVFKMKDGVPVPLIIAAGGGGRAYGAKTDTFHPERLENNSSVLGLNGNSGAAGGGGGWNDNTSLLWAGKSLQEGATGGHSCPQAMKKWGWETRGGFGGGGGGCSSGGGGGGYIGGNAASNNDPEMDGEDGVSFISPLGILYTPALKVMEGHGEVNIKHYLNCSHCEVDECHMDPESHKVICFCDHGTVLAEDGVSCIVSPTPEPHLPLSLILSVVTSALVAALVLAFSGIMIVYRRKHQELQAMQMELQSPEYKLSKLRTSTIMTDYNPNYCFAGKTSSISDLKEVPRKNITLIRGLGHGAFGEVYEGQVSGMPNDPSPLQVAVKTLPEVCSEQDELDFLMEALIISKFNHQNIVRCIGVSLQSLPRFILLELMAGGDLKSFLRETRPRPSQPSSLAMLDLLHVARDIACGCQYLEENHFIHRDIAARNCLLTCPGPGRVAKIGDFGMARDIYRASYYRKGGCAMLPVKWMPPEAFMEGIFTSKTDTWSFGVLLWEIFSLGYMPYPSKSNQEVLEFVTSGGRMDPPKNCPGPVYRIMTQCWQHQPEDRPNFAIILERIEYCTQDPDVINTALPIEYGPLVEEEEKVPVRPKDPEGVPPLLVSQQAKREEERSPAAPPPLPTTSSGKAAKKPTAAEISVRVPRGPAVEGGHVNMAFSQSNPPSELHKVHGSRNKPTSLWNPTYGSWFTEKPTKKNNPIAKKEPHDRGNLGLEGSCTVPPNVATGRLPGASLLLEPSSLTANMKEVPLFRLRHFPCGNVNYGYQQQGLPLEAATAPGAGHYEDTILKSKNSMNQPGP

pIC50 [1, 3]: > 7.00
pIC50 [2, 4]: 5.00 to 6.00
SMILES: CCNC(=O)c1cccc(F)c1Nc1nc(Nc2cc3c(cc2OC)CCN(CC(=O)NC)CC3)ncc1Cl [Example 1364, 2-[5-Chloro-2-(8-methoxy-3-methylcarbamoylmethyl-2,3,4,5-tetrahydro-1H-benzo[d]azepin-7-ylamino)-pyrimidin-4-ylamino]-N-ethyl-3-fluoro-benzamide]

pIC50 [1, 3]: > 7.00
pIC50 [2, 4]: 5.00 to 6.00
SMILES: COc1ccc(Nc2nc(Nc3cc4c(cc3OC)CCN(CC(=O)N(C)C)CC4)ncc2Cl)c(OC)n1 [Example 1200, 2-{7-[5-Chloro-4-(2,6-dimethoxy-pyridin-3-ylamino)-pyrimidin-2-ylamino]-8-methoxy-1,2,4,5-tetrahydro-benzo[d]azepin-3-yl}-N,N-dimethyl-acetamide]

pIC50 [1, 9]: > 7.00
pIC50 [2, 10]: 6.00 to 7.00
SMILES: CN1Cc2cc(Nc3ncc(Cl)c(Nc4ccccc4-c4cc[nH]n4)n3)ccc2CCC1=O [Example 1804, 8-{5-Chloro-4-[2-(1H-pyrazol-3-yl)-phenylamino]-pyrimidin-2-ylamino}-2-methyl-1,2,4,5-tetrahydro-benzo[c]azepin-3-one]

pIC50 [1, 9]: > 7.00
pIC50 [2, 10]: 6.00 to 7.00
SMILES: COc1cc2c(cc1Nc1ncc(Cl)c(Nc3ccccc3S(=O)(=O)N3CC[C@H](O)C3)n1)CCN(CC(C)(C)O)CC2 [Example 1562, (S)-1-(2-{5-Chloro-2-[3-(2-hydroxy-2-methyl-propyl)-8-methoxy-2,3,4,5-tetrahydro-1H-3-benzazepin-7-ylamino]-pyrimidin-4-ylamino}-benzenesulfonyl)-pyrrolidin-3-ol]

pIC50 [1, 9]: 6.00 to 7.00
pIC50 [2, 10]: 6.00 to 7.00
SMILES: C#CCNC(=O)c1cccc(F)c1Nc1nc(Nc2ccc3c(c2)N(CC)CCCC3(C)C)ncc1Cl [Example 1633, 2-[5-Chloro-2-(1-ethyl-5,5-dimethyl-2,3,4,5-tetrahydro-1H-benzo[b]azepin-8-ylamino)-pyrimidin-4-ylamino]-3-fluoro-N-prop-2-ynyl-benzamide]

pIC50 [1, 9]: > 7.00
pIC50 [2, 10]: 6.00 to 7.00
SMILES: CCN1CCNC(=O)c2ccc(Nc3ncc(Cl)c(Nc4ccccc4-c4nccn4C)n3)cc21 [Example 1453, 8-{5-Chloro-4-[2-(1-methyl-1H-imidazol-2-yl)-phenylamino]-pyrimidin-2-ylamino}-1-ethyl-1,2,3,4-tetrahydro-benzo[e][1,4]diazepin-5-one]

pIC50 [1, 3]: > 7.00
pIC50 [2, 4]: 6.00 to 7.00
SMILES: COCCN1CCc2ccc(Nc3ncc(Cl)c(Nc4ccccc4OCC(=O)O)n3)cc2CC1 [Example 1242, (2-{5-Chloro-2-[3-(2-methoxy-ethyl)-2,3,4,5-tetrahydro-1H-3-benzazepin-7-ylamino]-pyrimidin-4-ylamino}-phenoxy)-acetic acid]

pIC50 [1, 9]: > 7.00
pIC50 [2, 10]: 5.00 to 6.00
SMILES: CNC(=O)c1ccccc1Nc1nc(Nc2cc3c(cc2OC)N(C)C(=O)OCC3)ncc1Cl [Example 1505, 2-[5-Chloro-2-(3-methoxy-5-methyl-6-oxo-5,6,8,9-tetrahydro-7-oxa-5-aza-benzocyclohepten-2-ylamino)-pyrimidin-4-ylamino]-N-methyl-benzamide]

pIC50 [1, 9]: > 7.00
pIC50 [2, 10]: 6.00 to 7.00
SMILES: COCCN1C(=O)CCC(C)(C)c2ccc(Nc3ncc(Cl)c(N[C@H]4[C@@H](C(N)=O)[C@@H]5C=C[C@H]4C5)n3)cc21 [Example 1583, (1S,2S,3R,4R)-3-{5-Chloro-2-[1-(2-methoxy-ethyl)-5,5-dimethyl-2-oxo-2,3,4,5-tetrahydro-1H-benzo[b]azepin-8-ylamino]-pyrimidin-4-ylamino}-bicyclo[2.2.1]hept-5-ene-2-carboxylic acid amide]

pIC50 [1, 9]: > 7.00
pIC50 [2, 10]: 6.00 to 7.00
SMILES: CNC(=O)c1ccccc1Nc1nc(Nc2ccc3c(c2)C(C)(C)NC(=O)CC3)ncc1Cl [Example 1833, 2-(5-Chloro-2-(1,1-dimethyl-3-oxo-2,3,4,5-tetrahydro-1H-benzo[c]azepin-8-ylamino)pyrimidin-4-ylamino)-N-methylbenzamide]

pIC50 [1, 9]: > 7.00
pIC50 [2, 10]: 5.00 to 6.00
SMILES: CNC(=O)c1ncccc1Nc1nc(Nc2ccc3c(c2)CC(=O)N(C)CC3)ncc1Cl [Example 1820, 3-[5-Chloro-2-(3-methyl-4-oxo-2,3,4,5-tetrahydro-1H-benzo[d]azepin-7-ylamino)-pyrimidin-4-ylamino]-pyridine-2-carboxylic acid methylamide]

pIC50 [1, 9]: 6.00 to 7.00
pIC50 [2, 10]: 6.00 to 7.00
SMILES: CNC(=O)c1cccc(F)c1Nc1nc(Nc2ccc3c(c2)N(C(=O)CN2C(=O)c4ccccc4C2=O)CCCC3(C)C)ncc1Cl [Example 1616, 2-(5-Chloro-2-{1-[2-(1,3-dioxo-1,3-dihydro-isoindol-2-yl)-acetyl]-5,5-dimethyl-2,3,4,5-tetrahydro-1H-benzo[b]azepin-8-ylamino}-pyrimidin-4-ylamino)-3-fluoro-N-methyl-benzamide]

Continued, molecule first:

SMILES: CNC(=O)c1ccccc1Nc1nc(Nc2ccc3c(c2)C2CCC(C3)N2)ncc1Cl (stereo not shown) [Example 79, 2-[2-(12-Aza-tricyclo[7.2.1.0*2,7*]dodeca-2(7),3,5-trien-4-ylamino)-5-chloro-pyrimidin-4-ylamino]-N-methyl-benzamide]
pIC50 [1, 5]: > 7.00
pIC50 [2, 6]: > 7.00

SMILES: COc1c(Nc2ncc(Cl)c(Nc3ccccc3S(=O)(=O)N3CCCC3)n2)ccc2c1CCC(N1CCOCC1)CC2 (stereo not shown) [Example 900, 5-Chloro-N*2*-(1-methoxy-7-morpholin-4-yl-6,7,8,9-tetrahydro-5H-benzocyclohepten-2-yl)-N*4*-[2-(pyrrolidine-1-sulfonyl)-phenyl]-pyrimidine-2,4-diamine]
pIC50 [1, 7]: > 7.00
pIC50 [2, 8]: 5.00 to 6.00

SMILES: CCN1CCc2ccc(Nc3ncc(Cl)c(NCC(C)NS(C)(=O)=O)n3)cc2CC1 (stereo not shown) [Example 300, N-{2-[5-Chloro-2-(3-ethyl-2,3,4,5-tetrahydro-1H-benzo[d]azepin-7-ylamino)-pyrimidin-4-ylamino]-1-methyl-ethyl}-methanesulfonamide]
pIC50 [1, 5]: 6.00 to 7.00
pIC50 [2, 6]: 5.00 to 6.00

SMILES: CNC(=O)CN1CCc2cc(Nc3ncc(Cl)c(Nc4ccccc4C(=O)NC)n3)c(OC)cc2CC1 [Example 1114, 2-[5-Chloro-2-(8-methoxy-3-methylcarbamoylmethyl-2,3,4,5-tetrahydro-1H-benzo[d]azepin-7-ylamino)-pyrimidin-4-ylamino]-N-methyl-benzamide]
pIC50 [1, 3]: > 7.00
pIC50 [2, 4]: 5.00 to 6.00

SMILES: COc1cc2c(cc1Nc1ncc(Cl)c(N[C@@H]3CCCC[C@H]3NS(C)(=O)=O)n1)CCC(N1CCOCC1)CC2 (stereo partly drawn) [Example 1051, N-{(1R,2R)-2-[5-Chloro-2-(3-methoxy-7-morpholin-4-yl-6,7,8,9-tetrahydro-5H-benzocyclohepten-2-ylamino)-pyrimidin-4-ylamino]-cyclohexyl}-methanesulfonamide]
pIC50 [1, 3]: > 7.00
pIC50 [2, 4]: < 5.00

SMILES: COc1cc2c(cc1Nc1ncc(Cl)c(Nc3ccccc3S(C)(=O)=O)n1)CCN(CC(N)=O)CC2 [Example 1143, 2-{7-[5-Chloro-4-(2-methanesulfonyl-phenylamino)-pyrimidin-2-ylamino]-8-methoxy-1,2,4,5-tetrahydro-benzo[d]azepin-3-yl}-acetamide]
pIC50 [1, 3]: > 7.00
pIC50 [2, 4]: < 5.00

SMILES: COc1cc2c(cc1Nc1ncc(Cl)c(N[C@@H]3CCCC[C@H]3NS(C)(=O)=O)n1)CCN(CC(=O)N(C)C)CC2 [Example 258, 2-{7-[5-Chloro-4-((1R,2R)-2-methanesulfonylamino-cyclohexylamino)-pyrimidin-2-ylamino]-8-methoxy-1,2,4,5-tetrahydro-benzo[d]azepin-3-yl}-N,N-dimethyl-acetamide]
pIC50 [1, 5]: > 7.00
pIC50 [2, 6]: < 5.00

SMILES: CCN(CCO)Cc1cc(Nc2nc(Nc3ccc4c(c3)N(CC)CCN(CC)C4)ncc2Cl)ccc1F [Example 734, 2-({5-[5-Chloro-2-(1,4-diethyl-2,3,4,5-tetrahydro-1H-benzo[e][1,4]diazepin-8-ylamino)-pyrimidin-4-ylamino]-2-fluoro-benzyl}-ethyl-amino)-ethanol]
pIC50 [1, 7]: > 7.00
pIC50 [2, 8]: < 5.00

SMILES: CNC(=O)c1ccccc1Nc1nc(Nc2ccc3c(c2)N(C)CCN(C(=O)n2ccnc2)C3)ncc1Cl [Example 486, 2-{5-Chloro-2-[4-(imidazole-1-carbonyl)-1-methyl-2,3,4,5-tetrahydro-1H-benzo[e][1,4]diazepin-8-ylamino]-pyrimidin-4-ylamino}-N-methyl-benzamide]
pIC50 [1, 5]: > 7.00
pIC50 [2, 6]: > 7.00

SMILES: COc1cc(N2CCOCC2)ccc1Nc1nc(Nc2cccc3c2OCCCC3)ncc1Cl [Example 862, 5-Chloro-N*4*-(2-methoxy-4-morpholin-4-yl-phenyl)-N*2*-(2,3,4,5-tetrahydrobenzo[b]oxepin-9-yl)pyrimidine-2,4-diamine]
pIC50 [1, 7]: > 7.00
pIC50 [2, 8]: < 5.00

SMILES: CCNC(=O)c1cccc(F)c1Nc1nc(Nc2cc3c(cc2OC)CCN(CC(F)F)CC3)ncc1Cl [Example 777, 2-{5-Chloro-2-[3-(2,2-difluoro-ethyl)-8-methoxy-2,3,4,5-tetrahydro-1H-benzo[d]azepin-7-ylamino]-pyrimidin-4-ylamino}-N-ethyl-3-fluoro-benzamide]
pIC50 [1, 7]: > 7.00
pIC50 [2, 8]: 5.00 to 6.00
